The values below come from paper PMC7566811 (Bioorganic & medicinal chemistry, 2010).

pIC50: −log10 of the molar value. Where a name gives a salt, the structure may show the parent alone.

The nature of one data set: Oral cassette dosing PK. The class given is in vivo.
The conditions of data set [1]: ref 6a; cited from earlier work.
Data set [2] can be described thus: Single dose pharmacokinetics in rats. The settings on record: rat; for AUC: 30 mg/kg po, normalized to a dose of 30 mg/kg.
In the next data set the target is human CCR5 (Homo sapiens, UniProt P51681). The data set can be described thus: Inhibition of calcium mobilization of hCCR5/CHO cells stimulated with MIP-1α. The class given is cell-based. Background: A change in cytosolic calcium serves as a functional read-out for many receptors and channels.
human CCR5, sequence (P51681 whole entry): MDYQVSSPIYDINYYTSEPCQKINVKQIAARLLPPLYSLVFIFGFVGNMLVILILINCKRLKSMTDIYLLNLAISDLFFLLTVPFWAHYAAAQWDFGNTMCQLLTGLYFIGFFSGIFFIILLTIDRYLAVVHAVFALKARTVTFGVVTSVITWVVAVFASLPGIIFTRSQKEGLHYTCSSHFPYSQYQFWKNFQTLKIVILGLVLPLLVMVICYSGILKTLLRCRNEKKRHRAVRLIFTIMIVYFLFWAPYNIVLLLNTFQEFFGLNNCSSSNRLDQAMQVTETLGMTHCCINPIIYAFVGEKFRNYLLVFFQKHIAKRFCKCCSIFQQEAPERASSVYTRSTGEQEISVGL
The next data set concerns T cell tropic (X4) HIV-1. The data set can be described thus: Anti-HIV activity against X4 HIV-1. The class given is cell-based.

Regarding `CCCCN1C(=O)[C@H](CC2CCCCC2)NC(=O)C12CCN(Cc1ccc(Oc3ccc(NS(C)(=O)=O)cc3)cc1)CC2.Cl` [Compound 38, N-[4-(4-{[(3S)-1-Butyl-3-(cyclohexylmethyl)-2,5-dioxo-1,4,9-triazaspiro[5.5]undec-9-yl]methyl}phenoxy)phenyl]methanesulfonamide hydrochloride], in “Oral cassette dosing PK”, the “AUC after oral cassette dosing” value was “poor”.

Turning to `CCCCN1C(=O)C(CC(C)C)NC(=O)C12CCN(Cc1ccc(Oc3ccccc3)cc1)CC2.Cl` (stereo not drawn) [Compound 1b, 1-Butyl-3-isobutyl-9-(4-phenoxybenzyl)-1,4,9-triazaspiro[5.5]undecane-2,5-dione hydrochloride], the Cytotoxicity result in data set [1] was “minimal”.

Molecule `CCCCN1C(=O)[C@H](CC2CCCCC2)NC(=O)C12CCN(Cc1ccc(Oc3ccc(O)cc3)cc1)CC2.Cl` [Compound 36, (3S)-1-Butyl-3-(cyclohexylmethyl)-9-[4-(4-hydroxyphenoxy)benzyl]-1,4,9-triazaspiro[5.5]undecane-2,5-dione hydrochloride] displayed an AUC in data set [2] of 195 ng·h/mL.

For the molecule `CCCCN1C(=O)C(COC)NC(=O)C12CCN(Cc1ccc(Oc3ccccc3)cc1)CC2` (stereo not drawn) [Compound 13, 1-Butyl-3-(methoxymethyl)-9-(4-phenoxybenzyl)-1,4,9-triazaspiro[5.5]undecane-2,5-dione hydrochloride], the pIC50 on human CCR5 is 6.49.

For the molecule `CCCCN1C(=O)[C@H](CC2CCCCC2)NC(=O)C12CCN(Cc1ccc(Oc3ccc(S(N)(=O)=O)cc3)cc1)CC2.Cl` [Compound 39, 4-(4-{[(3S )-1-Butyl-3-(cyclohexylmethyl)-2,5-dioxo-1,4,9-triazaspiro[5.5]undec-9-yl]methyl}phenoxy)benzenesulfonamide hydrochloride], the “AUC after oral cassette dosing” value in the data set “Oral cassette dosing PK” is reported as “poor”.

Take `CCCCN1C(=O)[C@H](CC2CCCCC2)NC(=O)C12CCN(Cc1ccc(Oc3ccc(C(=O)O)cc3)cc1)CC2.Cl` [Compound 40, 4-(4-{[(3S)-1-Butyl-3-(cyclohexylmethyl)-2,5-dioxo-1,4,9-triazaspiro[5.5]undec-9-yl]methyl}phenoxy)benzoic acid hydrochloride]: the “Activity against T cell tropic (X4) HIV-1” value in the data set with T cell tropic (X4) HIV-1 is “inactive”. Moreover, the AUC in data set [2] is on record as 10,532 ng h/mL.

For the molecule `CC(C)CC1NC(=O)C2(CCN(Cc3ccc(Oc4ccccc4)cc3)CC2)N(CCC(C)O)C1=O.Cl` (stereo not drawn) [Compound 4, 1-(3-Hydroxybutyl)-3-isobutyl-9-(4-phenoxybenzyl)-1,4,9-triazaspiro[5.5]undecane-2,5-dione hydrochloride], the BA in data set [2] (30 mg/kg po vs 3 mg/kg iv) worked out at 34.1%.

Regarding `CCCCN1C(=O)C(CC2CCCCC2)NC(=O)C12CCN(Cc1ccc(Oc3ccccc3)cc1)CC2.Cl` (stereo not drawn) [Compound 1a, 1-Butyl-3-(cyclohexylmethyl)-9-(4-phenoxybenzyl)-1,4,9-triazaspiro[5.5]undecane-2,5-dione hydrochloride], in data set [1], the Cytotoxicity result was “minimal”.

One may read the AUC as the area under the concentration-time curve, a measure of exposure. A high value points to more exposure. What is called pIC50 is the negative decadic logarithm of the IC50, by convention in mol/L.
